{"source": "patent US9169254B2", "about": "“Spiroimidazolone derivative” (Chugai Seiyaku Kabushiki Kaisha, priority 2009, dated 2015)"}
{"target": "T1, human PTH1 receptor (Homo sapiens, UniProt Q03431)", "T1 sequence (Q03431 27-593)": "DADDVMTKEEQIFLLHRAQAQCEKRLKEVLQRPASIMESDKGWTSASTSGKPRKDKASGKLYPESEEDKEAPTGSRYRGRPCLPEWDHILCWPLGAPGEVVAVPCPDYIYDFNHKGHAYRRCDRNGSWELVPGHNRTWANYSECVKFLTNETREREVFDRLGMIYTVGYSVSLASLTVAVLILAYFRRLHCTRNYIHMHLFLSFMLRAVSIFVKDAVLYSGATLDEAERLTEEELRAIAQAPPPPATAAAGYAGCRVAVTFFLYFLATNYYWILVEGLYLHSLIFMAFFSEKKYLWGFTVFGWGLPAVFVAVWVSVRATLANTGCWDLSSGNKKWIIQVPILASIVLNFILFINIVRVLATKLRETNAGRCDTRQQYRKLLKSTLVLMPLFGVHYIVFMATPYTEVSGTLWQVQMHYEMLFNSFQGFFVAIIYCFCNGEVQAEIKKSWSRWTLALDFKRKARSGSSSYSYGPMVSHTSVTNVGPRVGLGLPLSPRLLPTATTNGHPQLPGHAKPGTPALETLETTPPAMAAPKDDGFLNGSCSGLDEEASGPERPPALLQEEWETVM", "assay": "In vitro cAMP signal activity in HKRK-B7 cells (LLC-PK1 cells overexpressing the human PTH1 receptor)", "assay_type": "cell-based", "details": "HKRK-B7 cells; compound at 1×10^−3 M; […]; 0.1 µM", "units": {"cAMP production activity (%)": "%"}}
{"smiles": "CC(=O)N1CCC(N(C(C)=O)c2ccc(/C=C/S(=O)(=O)N3CCC4(CC3)N=C(c3cccc(OC(F)(F)F)c3)NC4=O)c(C)c2)CC1", "note": "[Compound 1294, N-(1-Acetyl-piperidin-4-yl)-N-(3-methyl-4-{(E)-2-[4-oxo-2-(3-trifluoromethoxy-phenyl)-1,3,8-triaza-spiro[4.5]dec-1-ene-8-sulfonyl]-vinyl}-phenyl)-acetamide]", "cAMP production activity (%)": 76}
{"target": "T1, human PTH1 receptor", "assay": "In vitro cAMP signal activity in HKRK-B7 cells (LLC-PK1 cells overexpressing the human PTH1 receptor)", "assay_type": "cell-based", "details": "HKRK-B7 cells; compound at 1×10^−3 M; cAMP produced as percentage of that produced by hPTH(1-34) at 100 nM", "units": {"cAMP production activity (%)": "%"}}
{"smiles": "Cc1cc(N(C)C(N)=O)cc(C)c1CCS(=O)(=O)N1CCC2(CC1)N=C(CCCCCCCCCO)NC2=O", "note": "[Compound 1322, 1-(4-{2-[2-(9-Hydroxy-nonyl)-4-oxo-1,3,8-triaza-spiro[4.5]dec-1-ene-8-sulfonyl]-ethyl}-3,5-dimethyl-phenyl)-1-methyl-urea]", "cAMP production activity (%)": 80}
{"smiles": "Cc1cc(NCC2CNC(=O)O2)ccc1/C=C/S(=O)(=O)N1CCC2(CC1)N=C(C1CCCCC1)NC2=O", "note": "(stereo not shown) [Compound 207, 2-cyclohexyl-8-((E)-2-{2-methyl-4-[(2-oxo-oxazolidin-5-ylmethyl)-amino]-phenyl}-ethenesulfonyl)-1,3,8-triaza-spiro[4.5]dec-1-en-4-one]", "cAMP production activity (%)": 36}
{"smiles": "O=C1NC(C2CCCCC2)=NC12CCN(S(=O)(=O)/C=C/c1c(F)cccc1C(F)(F)F)CC2", "note": "[Compound 183, 2-cyclohexyl-8-[(E)-2-(2-fluoro-6-trifluoromethyl-phenyl)-ethenesulfonyl]-1,3,8-triaza-spiro[4.5]dec-1-en-4-one]", "cAMP production activity (%)": 68}
{"smiles": "Cc1cc(CN2C(=O)CCC2=O)cc(C)c1/C=C/S(=O)(=O)N1CCC2(CC1)N=C(C1CCC(C)CC1)NC2=O", "note": "(stereo not shown) [Compound 521, 1-(3,5-dimethyl-4-{(E)-2-[2-(4-methyl-cyclohexyl)-4-oxo-1,3,8-triaza-spiro[4.5]dec-1-ene-8-sulfonyl]-vinyl}-benzyl)-pyrrolidine-2,5-dione]", "cAMP production activity (%)": 55}
{"smiles": "Cc1cc(C(=O)N2CCS(=O)(=O)CC2)ccc1/C=C/S(=O)(=O)N1CCC2(CC1)N=C(C1CCCCC1)NC2=O", "note": "[Compound 502, 2-cyclohexyl-8-{(E)-2-[4-(1,1-dioxo-1λ^6-thiomorpholine-4-carbonyl)-2-methyl-phenyl]-ethenesulfonyl}-1,3,8-triaza-spiro[4.5]dec-1-en-4-one]", "cAMP production activity (%)": 14}
{"smiles": "CN(C)C(=O)Nc1ccc(CCS(=O)(=O)N2CCC3(CC2)N=C(C2CCCCC2)NC3=O)c(C(F)(F)F)c1", "note": "[Compound 273, 3-{4-[2-(2-cyclohexyl-4-oxo-1,3,8-triaza-spiro[4.5]dec-1-ene-8-sulfonyl)-ethyl]-3-trifluoromethyl-phenyl}-1,1-dimethyl-urea]", "cAMP production activity (%)": 55}
{"smiles": "Cc1ccc(O)cc1/C=C/S(=O)(=O)N1CCC2(CC1)N=C(c1cccc(OC(F)(F)F)c1)NC2=O", "note": "[Compound 227, 8-[(E)-2-(5-hydroxy-2-methyl-phenyl)-ethenesulfonyl]-2-(3-trifluoromethoxy-phenyl)-1,3,8-triaza-spiro[4.5]dec-1-en-4-one]", "cAMP production activity (%)": 87}
{"smiles": "Cc1cccc(C2=NC3(CCN(S(=O)(=O)CCc4ccc(C(=O)N(C)C)cc4C)CC3)C(=O)N2)c1", "note": "[Compound 84, 3,N,N-trimethyl-4-[2-(4-oxo-2-m-tolyl-1,3,8-triaza-spiro[4.5]dec-1-ene-8-sulfonyl)-ethyl]-benzamide]", "cAMP production activity (%)": 51}
{"smiles": "CCCCCCCCCC1=NC2(CCN(S(=O)(=O)/C=C/c3c(C)cc(N4C(=O)CNC4=O)cc3C)CC2)C(=O)N1", "note": "[Compound 539, 3-{3,5-dimethyl-4-[(E)-2-(2-nonyl-4-oxo-1,3,8-triaza-spiro[4.5]dec-1-ene-8-sulfonyl)-vinyl]-phenyl}-imidazolidine-2,4-dione]", "cAMP production activity (%)": 80}
{"smiles": "Cc1cc(C(=O)N2CCC(O)(CF)CC2)cc(C)c1/C=C/S(=O)(=O)N1CCC2(CC1)N=C(c1ccc(OCC(F)(F)C(F)F)c(C(F)(F)F)c1)NC2=O", "note": "[Compound 1251, 8-{(E)-2-[4-(4-fluoromethyl-4-hydroxy-piperidine-1-carbonyl)-2,6-dimethyl-phenyl]-ethenesulfonyl}-2-[4-(2,2,3,3-tetrafluoro-propoxy)-3-trifluoromethyl-phenyl]-1,3,8-triaza-spiro[4.5]dec-1-en-4-one]", "cAMP production activity (%)": 56}
{"smiles": "O=C(Cc1ccncc1)N1CCCC(C2=NC3(CCN(S(=O)(=O)CCc4cccc5ccccc45)CC3)C(=O)N2)C1", "note": "(stereo not shown) [Compound 438, 8-(2-naphthalen-1-yl-ethanesulfonyl)-2-[1-(2-pyridin-4-yl-acetyl)-piperidin-3-yl]-1,3,8-triaza-spiro[4.5]dec-1-en-4-one]", "cAMP production activity (%)": 14}
{"smiles": "Cc1cc(C(=O)N2CCC(O)(CF)CC2)cc(C)c1/C=C/S(=O)(=O)N1CCC2(CC1)N=C(c1ccc(OCC(F)(F)F)c(Cl)c1)NC2=O", "note": "[Compound 1246, 2-[3-chloro-4-(2,2,2-trifluoro-ethoxy)-phenyl]-8-{(E)-2-[4-(4-fluoromethyl-4-hydroxy-piperidine-1-carbonyl)-2,6-dimethyl-phenyl]-ethenesulfonyl}-1,3,8-triaza-spiro[4.5]dec-1-en-4-one]", "cAMP production activity (%)": 85}
{"smiles": "Cc1cc(S(C)(=O)=O)ccc1/C=C/S(=O)(=O)N1CCC2(CC1)N=C(c1cccc(C(F)(F)F)c1)NC2=O", "note": "[Compound 593, 8-[(E)-2-(4-methanesulfonyl-2-methyl-phenyl)-ethenesulfonyl]-2-(3-trifluoromethyl-phenyl)-1,3,8-triaza-spiro[4.5]dec-1-en-4-one]", "cAMP production activity (%)": 28}
{"smiles": "COCCC1CCC(C2=NC3(CCN(S(=O)(=O)CCc4ccc(C(=O)N(C)C)cc4C)CC3)C(=O)N2)CC1", "note": "(stereo not shown) [Compound 902, 4-(2-{2-[4-(2-Methoxy-ethyl)-cyclohexyl]-4-oxo-1,3,8-triaza-spiro[4.5]dec-1-ene-8-sulfonyl}-ethyl)-3,N,N-trimethyl-benzamide]", "cAMP production activity (%)": 67}
{"smiles": "Cc1cc(C(=O)N(C)C)ccc1CCS(=O)(=O)N1CCC2(CC1)N=C(c1ccc(C(F)(F)F)cc1C(F)(F)F)NC2=O", "note": "[Compound 100, 4-{2-[2-(2,4-bis-trifluoromethyl-phenyl)-4-oxo-1,3,8-triaza-spiro[4.5]dec-1-ene-8-sulfonyl]-ethyl}-3,N,N-trimethyl-benzamide]", "cAMP production activity (%)": 61}
{"smiles": "Cc1cc(C(=O)N2CCN(C3CCN(C)CC3)CC2)ccc1CCS(=O)(=O)N1CCC2(CC1)N=C(c1cccc(C(F)(F)F)c1)NC2=O", "note": "[Compound 958]", "cAMP production activity (%)": 49}
{"smiles": "Cc1cc(NCCO)ccc1CCS(=O)(=O)N1CCC2(CC1)N=C(c1cccc(C(F)(F)F)c1)NC2=O", "note": "[Compound 160, 8-{2-[4-(2-hydroxy-ethylamino)-2-methyl-phenyl]-ethanesulfonyl}-2-(3-trifluoromethyl-phenyl)-1,3,8-triaza-spiro[4.5]dec-1-en-4-one]", "cAMP production activity (%)": 65}
{"smiles": "O=C1NC(c2ccc(Cl)cc2Cl)=NC12CCN(S(=O)(=O)c1ccc(F)c(Cl)c1)CC2", "note": "[Compound 49, 8-(3-chloro-4-fluoro-benzenesulfonyl)-2-(2,4-dichloro-phenyl)-1,3,8-triaza-spiro[4.5]dec-1-en-4-one]", "cAMP production activity (%)": 29}
{"smiles": "COc1ccc(CCCS(=O)(=O)N2CCC3(CC2)N=C(C2CCCCC2)NC3=O)cc1", "note": "[Compound 346, 2-Cyclohexyl-8-[3-(4-methoxy-phenyl)-propane-1-sulfonyl]-1,3,8-triaza-spiro[4.5]dec-1-en-4-one]", "cAMP production activity (%)": 28}
{"smiles": "Cc1cc(C(=O)N2CCN(CCF)CC2)cc(C)c1CCS(=O)(=O)N1CCC2(CC1)N=C(C1CCC(CCC(F)(F)F)CC1)NC2=O", "note": "(stereo not shown) [Compound 761, 8-(2-{4-[4-(2-fluoro-ethyl)-piperazine-1-carbonyl]-2,6-dimethyl-phenyl}-ethanesulfonyl)-2-[4-(3,3,3-trifluoro-propyl)-cyclohexyl]-1,3,8-triaza-spiro[4.5]dec-1-en-4-one]", "cAMP production activity (%)": 104}
{"smiles": "CC1CCC(C2=NC3(CN(S(=O)(=O)CCc4cccc5ccccc45)C3)C(=O)N2)CC1", "note": "(stereo not shown) [Compound 1104, 6-(4-Methyl-cyclohexyl)-2-(2-naphthalen-1-yl-ethanesulfonyl)-2,5,7-triaza-spiro[3.4]oct-5-en-8-one]", "cAMP production activity (%)": 16}
{"smiles": "Cc1ccc(C(=O)N(C)C)cc1CCS(=O)(=O)N1CCC2(CC1)N=C(c1cccc(OC(F)(F)F)c1)NC2=O", "note": "[Compound 412, 4,N,N-Trimethyl-3-{2-[4-oxo-2-(3-trifluoromethoxy-phenyl)-1,3,8-triaza-spiro[4.5]dec-1-ene-8-sulfonyl]-ethyl}-benzamide]", "cAMP production activity (%)": 54}
{"smiles": "Cc1cc(C(=O)N2CCC(C)(O)CC2)cc(C)c1/C=C/S(=O)(=O)N1CCC2(CC1)N=C(c1ccc(COc3cccc(C(F)(F)F)c3)cc1)NC2=O", "note": "[Compound 1191, 8-{(E)-2-[4-(4-hydroxy-4-methyl-piperidine-1-carbonyl)-2,6-dimethyl-phenyl]-ethenesulfonyl}-2-[4-(3-trifluoromethyl-phenoxymethyl)-phenyl]-1,3,8-triaza-spiro[4.5]dec-1-en-4-one]", "cAMP production activity (%)": 66}
{"smiles": "CC(=O)N(C)c1cc(C)c(CCS(=O)(=O)N2CCC3(CC2)N=C(CCCCCCC(F)(F)F)NC3=O)c(C)c1", "note": "[Compound 1044, N-(3,5-Dimethyl-4-{2-[4-oxo-2-(7,7,7-trifluoro-heptyl)-1,3,8-triaza-spiro[4.5]dec-1-ene-8-sulfonyl]-ethyl}-phenyl)-N-methyl-acetamide]", "cAMP production activity (%)": 86}
